The source made the active and inactive calls.
Assays:
[1] = target: T1, Estrogen receptor (Homo sapiens, UniProt P03372);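 note: potency for inhibiting coactivator peptide recruitment to the receptor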
T1 sequence (P03372 whole entry): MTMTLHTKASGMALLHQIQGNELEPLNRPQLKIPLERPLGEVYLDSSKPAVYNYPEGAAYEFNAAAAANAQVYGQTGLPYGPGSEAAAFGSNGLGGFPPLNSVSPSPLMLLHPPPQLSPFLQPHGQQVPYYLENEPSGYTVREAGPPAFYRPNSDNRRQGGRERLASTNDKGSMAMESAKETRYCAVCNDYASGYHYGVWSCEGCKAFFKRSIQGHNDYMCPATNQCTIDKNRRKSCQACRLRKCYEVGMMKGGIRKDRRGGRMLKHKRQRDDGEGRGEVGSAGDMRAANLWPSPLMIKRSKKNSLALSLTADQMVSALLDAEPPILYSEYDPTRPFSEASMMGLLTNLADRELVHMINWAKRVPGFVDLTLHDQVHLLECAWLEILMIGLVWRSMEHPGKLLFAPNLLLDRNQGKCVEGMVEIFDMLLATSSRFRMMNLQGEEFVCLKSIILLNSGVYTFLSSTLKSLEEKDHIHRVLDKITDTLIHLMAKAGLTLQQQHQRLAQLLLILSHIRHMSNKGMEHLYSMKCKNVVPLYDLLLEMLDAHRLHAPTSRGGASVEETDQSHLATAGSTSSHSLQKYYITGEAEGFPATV

[2] = target: T2, Estrogen receptor beta (Homo sapiens, UniProt Q92731);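 note: recombinant ER-beta bound to coactivator SRC1 peptide in presence of estradiol agonist; inhibitors block coactivator peptide binding and lower the FRET signal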
T2 sequence (Q92731 whole entry): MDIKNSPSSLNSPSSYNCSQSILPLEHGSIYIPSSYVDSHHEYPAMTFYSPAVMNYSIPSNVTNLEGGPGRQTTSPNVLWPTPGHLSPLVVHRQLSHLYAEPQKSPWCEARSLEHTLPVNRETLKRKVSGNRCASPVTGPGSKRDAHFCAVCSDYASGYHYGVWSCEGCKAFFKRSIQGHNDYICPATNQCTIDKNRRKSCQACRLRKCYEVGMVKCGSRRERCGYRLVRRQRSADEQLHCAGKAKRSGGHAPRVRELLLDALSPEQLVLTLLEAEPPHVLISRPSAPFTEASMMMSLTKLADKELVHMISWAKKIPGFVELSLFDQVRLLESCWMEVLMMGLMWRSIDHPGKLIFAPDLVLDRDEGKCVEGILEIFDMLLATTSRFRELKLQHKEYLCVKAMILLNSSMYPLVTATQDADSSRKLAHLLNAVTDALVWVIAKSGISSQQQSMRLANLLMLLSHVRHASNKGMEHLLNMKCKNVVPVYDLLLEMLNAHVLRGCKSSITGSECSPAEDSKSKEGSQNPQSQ

[3] = target: T2, Estrogen receptor beta; assay: ERβ–SRC-3 coactivator interaction inhibitors, confirmation, orthogonal assay, biochemical, ELISA, streptavidin-HRP readout (AID 1060)
[4] = target: T3, Carboxy-terminal domain RNA polymerase II polypeptide A small phosphatase 1 (Homo sapiens, UniProt Q9GZU7); assay: inhibitors of CTDSP1, concentration-response testing, biochemical assay, absorbance-based, actives from ultra-high-throughput screening (AID 540297); assay type: functional
T3 sequence (Q9GZU7 whole entry): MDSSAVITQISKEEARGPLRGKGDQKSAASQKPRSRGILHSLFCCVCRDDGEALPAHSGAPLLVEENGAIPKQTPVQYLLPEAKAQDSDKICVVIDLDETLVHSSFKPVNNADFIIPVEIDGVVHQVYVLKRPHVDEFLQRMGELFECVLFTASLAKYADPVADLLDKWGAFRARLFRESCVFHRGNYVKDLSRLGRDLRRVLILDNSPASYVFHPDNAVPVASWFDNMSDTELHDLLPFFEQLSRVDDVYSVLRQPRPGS

[5] = target: E3 ubiquitin-protein ligase UHRF1 (Homo sapiens, UniProt Q96T88); assay: Counterscreen for inhibitors of 5-meCpG-binding domain protein 2 (MBD2): TRFRET-based biochemical high throughput dose response assay to identify inhibitors of binding of ubiquitin-like with PHD and ring finger domains 1 (UHRF1) to methylated oligonucleotide.
E3 ubiquitin-protein ligase UHRF1, sequence (Q96T88 whole entry, the tested form may be a part): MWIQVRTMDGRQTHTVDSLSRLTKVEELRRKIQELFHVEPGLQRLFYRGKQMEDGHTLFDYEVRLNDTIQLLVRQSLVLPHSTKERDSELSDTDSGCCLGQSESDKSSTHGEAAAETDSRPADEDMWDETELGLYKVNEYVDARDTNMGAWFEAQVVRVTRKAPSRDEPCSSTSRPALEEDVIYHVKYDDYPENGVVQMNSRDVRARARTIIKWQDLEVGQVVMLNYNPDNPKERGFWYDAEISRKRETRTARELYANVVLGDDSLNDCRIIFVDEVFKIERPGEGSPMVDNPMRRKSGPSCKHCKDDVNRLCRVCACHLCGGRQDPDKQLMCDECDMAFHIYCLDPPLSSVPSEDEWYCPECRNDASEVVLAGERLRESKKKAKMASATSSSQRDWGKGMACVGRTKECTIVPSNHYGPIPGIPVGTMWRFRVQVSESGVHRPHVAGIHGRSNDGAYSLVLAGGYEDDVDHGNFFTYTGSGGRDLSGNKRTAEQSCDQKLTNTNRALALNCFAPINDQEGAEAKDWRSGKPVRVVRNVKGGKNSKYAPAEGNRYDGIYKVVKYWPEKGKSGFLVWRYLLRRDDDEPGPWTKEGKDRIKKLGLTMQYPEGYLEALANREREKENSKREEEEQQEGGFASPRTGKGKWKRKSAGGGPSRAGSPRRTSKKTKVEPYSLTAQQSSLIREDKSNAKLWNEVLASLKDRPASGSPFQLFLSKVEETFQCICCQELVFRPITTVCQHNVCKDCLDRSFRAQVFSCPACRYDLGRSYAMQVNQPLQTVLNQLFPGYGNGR

[6] = target: T4, Bcl-2-like protein 10 (Homo sapiens, UniProt Q9HD36); assay: displacers of TR3 peptide from Bcl-B, primary screen, selectivity assay for Bfl-1 inhibitor project, biochemical, fluorescence polarization, FITC-TR3 peptide (AID 748);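 note: fluorescence polarization from a fluorescein-labelled TR3 peptide binding purified Bcl-B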
T4 sequence (Q9HD36 whole entry): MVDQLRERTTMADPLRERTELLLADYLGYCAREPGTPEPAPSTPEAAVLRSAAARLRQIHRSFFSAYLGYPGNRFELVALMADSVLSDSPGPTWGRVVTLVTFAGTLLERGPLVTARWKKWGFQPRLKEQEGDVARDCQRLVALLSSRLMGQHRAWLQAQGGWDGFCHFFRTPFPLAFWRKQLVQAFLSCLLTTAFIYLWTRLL

[7] = cells; conditions: A549
[8] = cells
[9] = test system: HEK293; assay: HEK293T cell cytotoxicity, dose response, cytotoxicity control, ATP luminescence, cherry-pick samples (AID 687005); assay type: functional, cell-based; conditions: Homo sapiens;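 note: cells exposed to compound for 48 hours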
[10] = HEK293 Cytotoxicity Assay Measured in Cell-Based System Using Plate Reader - 7071-01_Inhibitor_Dose_CherryPick_Activity_Set2.; assay type: functional
[11] = test system: Vero; assay: cells; assay type: functional; conditions: Chlorocebus sabaeus
[12] = target: T5, Methionyl-tRNA synthetase, putative (Trypanosoma brucei brucei, UniProt Q38C91); assay type: functional, Trypanosoma brucei brucei strain 927/4 GUTat10.1
T5 sequence (Q38C91 whole entry): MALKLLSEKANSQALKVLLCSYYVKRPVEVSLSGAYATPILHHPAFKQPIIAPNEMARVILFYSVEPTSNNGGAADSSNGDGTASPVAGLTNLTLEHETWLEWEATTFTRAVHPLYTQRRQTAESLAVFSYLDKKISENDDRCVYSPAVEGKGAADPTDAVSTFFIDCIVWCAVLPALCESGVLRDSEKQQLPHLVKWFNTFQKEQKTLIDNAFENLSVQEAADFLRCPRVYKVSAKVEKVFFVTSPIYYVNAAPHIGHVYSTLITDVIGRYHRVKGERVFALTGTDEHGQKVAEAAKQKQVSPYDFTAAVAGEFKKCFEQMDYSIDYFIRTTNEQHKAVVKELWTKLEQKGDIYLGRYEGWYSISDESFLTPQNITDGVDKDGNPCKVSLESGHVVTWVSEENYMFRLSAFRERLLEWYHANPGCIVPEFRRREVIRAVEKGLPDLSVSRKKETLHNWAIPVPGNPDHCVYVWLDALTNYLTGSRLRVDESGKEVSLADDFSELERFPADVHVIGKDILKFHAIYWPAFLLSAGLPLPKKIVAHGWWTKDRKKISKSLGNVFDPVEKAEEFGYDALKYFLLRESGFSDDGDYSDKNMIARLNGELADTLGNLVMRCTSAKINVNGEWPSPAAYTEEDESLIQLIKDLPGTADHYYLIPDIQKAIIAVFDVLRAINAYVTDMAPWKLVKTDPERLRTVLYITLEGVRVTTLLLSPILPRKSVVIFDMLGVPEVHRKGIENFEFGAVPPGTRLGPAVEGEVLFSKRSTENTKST

[13] = Counterscreen for inhibitors of Trypanosoma brucei methionyl tRNA synthetase (MetRS): Luminescence-based cell-based high throughput dose response assay to identify compounds that are cytotoxic to Jurkat human T lymphocyte cells.; assay type: functional
[14] = target: T5, Methionyl-tRNA synthetase, putative; assay type: functional, Trypanosoma brucei brucei strain 927/4 GUTat10.1; remark: listed apart in the source
[15] = Late stage counterscreen for inhibitors of Trypanosoma brucei methionyl tRNA synthetase (MetRS): Luminescence-based cell-based high throughput dose response assay to identify compounds that are cytotoxic to Jurkat human T lymphocyte cells.; assay type: functional
[16] = Inhibition of T. cruzi Tulahuen strain amastigotes in L-6 muscle cells Measured in Cell-Based and Microorganism Combination System Using Plate Reader - 2138-03_Inhibitor_Dose_CherryPick_Activity.; assay type: functional; conditions: Rattus norvegicus, L6
[17] = cytotoxicity in L-6 rat myocytes, dose response, cytotoxicity control, cell-based, plate reader, cherry-pick (AID 651896); assay type: functional
[18] = Inhibition of Plasmodium falciparum NF54 Measured in Cell-Based System Using Plate Reader - 2138-11_Inhibitor_Dose_CherryPick_Activity.; assay type: functional
[19] = L. donovani amastigote growth inhibition, dose response, axenic amastigotes, plate reader, cherry pick (AID 651891); assay type: functional, cell-based; conditions: Leishmania donovani
[20] = intracellular Trypanosoma cruzi inhibitors in host cells – cell-based, plate reader, cherry-pick samples, set 3, dose response (AID 651818); assay type: functional;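 note: compounds incubated with infected cells for about four days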
[21] = T. b. rhodesiense proliferation inhibition, dose response, STIB900 strain, plate reader, cherry pick (AID 651893); assay type: functional, cell-based; conditions: Trypanosoma brucei
[22] = T. cruzi growth inhibition in host cells, dose response, cell-based, plate reader, dry powder, set 2 (AID 652275); assay type: functional
[23] = growth inhibition of intracellular T. cruzi, dose response, cell-based, plate reader, dry powder samples (AID 651845); assay type: functional
[24] = T. cruzi intracellular amastigote growth inhibition, dose response, imaging, CA-I/72 strain, bovine embryo skeletal muscle, dry powder (AID 651885); assay type: functional, cell-based
[25] = miR-122 activators in hepatoma reporter cells, dose response, cell-based, Huh7 psiCHECK-miR122, Renilla luciferase, cherry-picked (AID 651956); assay type: functional;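 note: huh7 hepatoma cells stably carrying a psiCHECK-2 miR-122 sensor plasmid; renilla luciferase signal reporting endogenous miR-122 activity after 48 h compound exposure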
[26] = target: Paired box protein Pax-8 (Homo sapiens, UniProt Q06710); assay: inhibitors of PAX8-driven TPO luciferase reporter, dose response, RMG-I cells, cherry-pick (AID 687027); assay type: functional, cell-based;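 note: luciferase reporter driven by Pax8 target thyroperoxidase promoter measured by SteadyGlo luminescence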
Paired box protein Pax-8, sequence (Q06710 whole entry): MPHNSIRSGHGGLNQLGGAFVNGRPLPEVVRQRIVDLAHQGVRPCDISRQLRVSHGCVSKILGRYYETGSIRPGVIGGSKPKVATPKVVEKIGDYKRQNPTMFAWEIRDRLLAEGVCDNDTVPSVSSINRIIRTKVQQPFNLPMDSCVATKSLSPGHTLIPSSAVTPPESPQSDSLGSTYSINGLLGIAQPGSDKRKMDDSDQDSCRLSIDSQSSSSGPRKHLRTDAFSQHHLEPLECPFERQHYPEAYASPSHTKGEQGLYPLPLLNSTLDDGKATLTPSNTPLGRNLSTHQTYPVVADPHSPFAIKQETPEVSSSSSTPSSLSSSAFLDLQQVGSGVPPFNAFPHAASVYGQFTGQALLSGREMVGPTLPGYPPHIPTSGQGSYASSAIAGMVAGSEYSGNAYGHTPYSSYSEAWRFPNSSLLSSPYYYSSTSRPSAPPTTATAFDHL

[27] = cytotoxicity in COV362 ovarian cancer cells, dose response, cytotoxicity control for PAX8 inhibitor project, cell-based, plate reader, dry powder, SA12 (AID 743144); assay type: functional
[28] = IOSE-T80 ovarian epithelial cell cytotoxicity, dose response, cytotoxicity control for PAX8 inhibitor project, plate reader, dry powder samples (AID 743045); assay type: functional, cell-based
[29] = inhibitors of PGC1a acetylation in cells, dose response, cell-based, cherry-picked samples (AID 720514); assay type: functional;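 note: potency may reflect raised or lowered acetylation signal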
[30] = NIH:OVCAR-3 ovarian cancer cell cytotoxicity, dose response, PAX8 inhibitor project, plate reader, dry powder samples (AID 743044); assay type: functional, cell-based
[31] = IGROV1 ovarian cancer cell cytotoxicity, dose response, PAX8 inhibitor project, plate reader, dry powder samples (AID 743043); assay type: functional, cell-based; conditions: IGROV-1
[32] = cytotoxicity in OVCAR4 cells, dose response, cytotoxicity control for PAX8 inhibitor project, cell-based, plate reader, dry powder, SA11 (AID 743150); assay type: functional; conditions: OVCAR-4
[33] = cytotoxicity in COV434 cells, dose response, cytotoxicity control for PAX8 inhibitor project, cell-based, plate reader, dry powder, SA7 (AID 743145); assay type: functional
[34] = cytotoxicity in OV-90 ovarian cancer cells, dose response, PAX8 inhibitor project, cell-based, plate reader, dry powder, SA8 (AID 743149); assay type: functional
[35] = cytotoxicity in OVCAR8 ovarian cancer cells, dose response, PAX8 project, cell-based, plate reader, dry powder samples (AID 743197); assay type: functional; conditions: OVCAR-8
[36] = cytotoxicity dependent on PAX8, dose response, cell-based, plate reader, dry powder (AID 743049); assay type: functional
[37] = inhibitors of HIV Env-driven cell fusion, dose response, cherry-pick (AID 652057); assay type: functional, cell-based
[38] = ZM109 Env clade C HIV-1 fusion inhibitors, dose response, HeLa effector, CEM target cells, luciferase, cherry-pick (AID 652058); assay type: functional, cell-based
[39] = HIV Env cell-cell fusion inhibitors, dose response, HIV entry, plate reader, dry powder (AID 687023); assay type: functional, cell-based
[40] = CEM21 cell cytotoxicity, dose response, cytotoxicity control, plate reader, dry powder (AID 687026); assay type: functional, cell-based

O=C(Cc1coc2cc3c(cc12)CCC3)OCc1cc(=O)n2c(n1)sc1ccccc12
active: IC50 [1] 4.83 µM | IC50 [2] 3.05 µM | IC50 [4] 4.58 µM
17.6 µM (not active): IC50 [3]
inactive: IC50 [5] > 43.8 µM

Cn1c(=N)c(S(=O)(=O)c2ccccc2)cc2c(=O)n3ccccc3nc21
inactive: IC50 [6] > 12.5 µM | AC50 [7] > 52 µM
active: AC50 [8] 1.26 µM

Cc1cccc(C)c1NC(=O)CNC(=O)C(C)N1CCCCC1 (stereo not given)
inactive: AC50 [9] > 52 µM | AC50 [10] > 52 µM

O=C(C[C@H]1C(=O)N(Cc2ccccc2)C[C@@H]1c1ccc(Br)cc1)Nc1ccc(Br)cc1
active: CC50 [11] > 25 µM | IC50 [12] 3.46 µM | IC50 [14] 1.78 µM
inactive: IC50 [13] 83.3 µM | IC50 [15] 66.5 µM

C[C@@H]1CN([C@H](C)CO)C(=O)c2cccc(NC(=O)c3ccncc3)c2O[C@H]1CN(C)Cc1ccccc1
active: AC50 [20] 0.08 µM | AC50 [22] 0.00561 µM | AC50 [23] 0.064 µM | IC50 [24] 0.0144 µM
inactive: IC50 [16] 5.64 µM | IC50 [17] > 100 µM | IC50 [18] 5.64 µM | IC50 [19] > 100 µM | IC50 [21] 6.14 µM

CN(C[C@H]1N[C@@H](CO)[C@@H]1c1ccc(C2=CCCC2)cc1)C(=O)c1ccc(F)cc1
active: AC50 [25] 13 µM | AC50 [26] 0.895 µM | AC50 [27] 3.27 µM | AC50 [28] 3.25 µM | AC50 [29] 0.25 µM | AC50 [30] 5.63 µM | AC50 [31] 4.15 µM | AC50 [32] 1.57 µM | AC50 [33] 5.17 µM | AC50 [34] 9.17 µM | AC50 [35] 4.04 µM | AC50 [36] 2.21 µM

C[C@@H]1CN([C@@H](C)CO)C(=O)c2cccc(NS(=O)(=O)c3ccc(F)cc3)c2O[C@@H]1CN(C)Cc1ccc(C(F)(F)F)cc1
active: AC50 [37] 0.295 µM | AC50 [38] 0.451 µM | AC50 [39] 4.05 µM | AC50 [40] 43.9 µM

From ChEMBL document CHEMBL1201862, “PubChem BioAssay data set” (2004)
